The text below walks through data of patent publication US9402821B2, “Methods and pharmaceutical compositions for treatment of cystic fibrosis” (INSERM (Institut National de la sante et de la Recherche …, priority 2012, dated 2016).

“Also recorded” adds a separate entry of the source. Read-outs that look alike come from different tables or passages of the source.

One assay relates to cyclooxygenase. The following applies: cited from earlier work.
The subject of a further assay is IL-8 promoter. As to the kind of experiment: IL-8 promoter luciferase reporter / IL-8 mRNA qPCR, TNFα-stimulated cells. Format: cell-based. The conditions noted are these: 250 μM; TNFα 10 ng/ml; HeLa CFTR wt and CFTR DF508 (FIG. 8B). As for the experimental part:
Cells were transiently transfected by the short IL-8 promoter-firefly luciferase reporter and renilla luciferase reference and inflammation was induced by 10 ng/ml TNFα for 1 h. A. HeLa cells were pre-treated with diluent or different doses of sulindac 1 h before inflammation induction and 4 h after. IL-8 promoter activity in cells treated with sulindac+TNFα was expressed in percent of diluent+TNFα. B. After treatment, HeLa Ctr cells were lysed with TRIzol (Invitrogen). Total RNA was extracted, and 1 μg of total RNA was reverse transcribed with a reverse transcription kit. IL-8 mRNA expression was quantified by real-time quantitative PCR (qPCR). The comparative threshold cycle (CT) method was used for relative quantification of PCR products after IL-8 was normalised to TBP (ΔCt=CtIL-8−CtTBP). […] C After treatment, IL-8 in supernatant was measured by ELISA. The IL-8 stimulation of cells treated with test drug +TNFα were expressed as fold compared to drug −TNFα. […]
(§1) Cells were lysed with the Passive Lysis Buffer (Promega), and luciferase activity in the cellular extracts was determined by the Dual Luciferase Assay System (Promega) using a luminometer (Tristar; Berthold). The results were normalized to those obtained with the Renilla luciferase reference plasmid used to control the transfection efficiency, and the values were expressed as luminescence intensity (Luciferase/Renilla). […]

Assay [1] relates to NF-κB transcriptional activity. Kind of assay: NF-κB firefly luciferase reporter assay, TNFα-stimulated cells. The format is cell-based. The conditions noted are these: TNFα 10 ng/ml. As for the experimental part: All cells were transiently transfected by NF-κB firefly luciferase reporter and renilla luciferase reference. A. HeLa control cells (Ctr) were pre-treated with diluent (0.5%) or different doses of sulindac for 1 h and stimulated for 1 h with 10 ng/ml TNFα. After removal of TNFα, cells were incubated for 4 h with sulindac. Luciferase activity was analysed in protein extract. The NF-κB transcriptional activity in cells treated with sulindac+TNFα was expressed in percent of diluent+TNFα. B. Hela cells Wt, DF508 and Ctr were pre-treated with diluent (0.5%), ibuprofen (500 μM) or sulindac (500 μM) for 1 h and stimulated for 1 h with […] TNFα. After removal of TNFα, cells were incubated for 4 h with pharmacological treatment. The NF-κB transcriptional activity in cells treated with ibuprofen+TNFα and sulindac+TNFα was expressed in percent of diluent+TNFα. Results of at least three independent experiments, means±SEM. Unilateral paired t test: * p<0.02
All cells were pre-treated with diluent (0.5%), sulindac ([…]) or sulindac sulfone (250 μM) for 1 h and stimulated for 1 h with 10 ng/ml TNFα. […]
Plasmid Constructs and Transient Transfection To assay the transcriptional activity of NF-κB, pNF-κBLuc, a luciferase reporter plasmid containing five sequential NF-κB binding sites upstream of a minimum promoter element, NF-κB-Luc (Stratagene), was used. Transcriptional activity of the IL-8 promoter was evaluated with reporter constructs consisting of the IL-8 promoter (−133 bp from the transcription start site) fused to the Luciferase gene, kindly provided by Naofumi Mukaida. […]
as §1
The transcriptional activity of NF-κB and IL-8 promoter was measured as described before. […]

In a further assay the target is CFTR (Homo sapiens, UniProt P13569). Kind of assay: CFTR maturation by Western blot of membrane extracts. Format: cell-based. More on the design: expressed in transfected cells. The following applies: 500 μM. The method, then: B. Chloride activity in HeLa Wt cells was measured by MQAE assay, after 3 h of treatment by NSAID (500 μM) or diluent. CFTR activity was expressed in rate of UFA/sec, calculated by difference between ((Ft−F0)/t) with CFTR induction and ((Ft−F0)/t) without CFTR induction. […] C. Primary culture of human nasal epithelial cell (HNEC) grown on Snapwell filters (air-liquid interface) were exposed basolaterally to sulindac (500 μM) or vehicle for 2 h and immediately mounted into a voltage-clamp system to bioelectric measurements. Short circuit current was measured with addition of amiloride to evaluated amiloride sensitive transport or with forskolin and IBMX for induced cAMP-dependent Cl secretion.
CFTR, sequence (P13569 whole entry): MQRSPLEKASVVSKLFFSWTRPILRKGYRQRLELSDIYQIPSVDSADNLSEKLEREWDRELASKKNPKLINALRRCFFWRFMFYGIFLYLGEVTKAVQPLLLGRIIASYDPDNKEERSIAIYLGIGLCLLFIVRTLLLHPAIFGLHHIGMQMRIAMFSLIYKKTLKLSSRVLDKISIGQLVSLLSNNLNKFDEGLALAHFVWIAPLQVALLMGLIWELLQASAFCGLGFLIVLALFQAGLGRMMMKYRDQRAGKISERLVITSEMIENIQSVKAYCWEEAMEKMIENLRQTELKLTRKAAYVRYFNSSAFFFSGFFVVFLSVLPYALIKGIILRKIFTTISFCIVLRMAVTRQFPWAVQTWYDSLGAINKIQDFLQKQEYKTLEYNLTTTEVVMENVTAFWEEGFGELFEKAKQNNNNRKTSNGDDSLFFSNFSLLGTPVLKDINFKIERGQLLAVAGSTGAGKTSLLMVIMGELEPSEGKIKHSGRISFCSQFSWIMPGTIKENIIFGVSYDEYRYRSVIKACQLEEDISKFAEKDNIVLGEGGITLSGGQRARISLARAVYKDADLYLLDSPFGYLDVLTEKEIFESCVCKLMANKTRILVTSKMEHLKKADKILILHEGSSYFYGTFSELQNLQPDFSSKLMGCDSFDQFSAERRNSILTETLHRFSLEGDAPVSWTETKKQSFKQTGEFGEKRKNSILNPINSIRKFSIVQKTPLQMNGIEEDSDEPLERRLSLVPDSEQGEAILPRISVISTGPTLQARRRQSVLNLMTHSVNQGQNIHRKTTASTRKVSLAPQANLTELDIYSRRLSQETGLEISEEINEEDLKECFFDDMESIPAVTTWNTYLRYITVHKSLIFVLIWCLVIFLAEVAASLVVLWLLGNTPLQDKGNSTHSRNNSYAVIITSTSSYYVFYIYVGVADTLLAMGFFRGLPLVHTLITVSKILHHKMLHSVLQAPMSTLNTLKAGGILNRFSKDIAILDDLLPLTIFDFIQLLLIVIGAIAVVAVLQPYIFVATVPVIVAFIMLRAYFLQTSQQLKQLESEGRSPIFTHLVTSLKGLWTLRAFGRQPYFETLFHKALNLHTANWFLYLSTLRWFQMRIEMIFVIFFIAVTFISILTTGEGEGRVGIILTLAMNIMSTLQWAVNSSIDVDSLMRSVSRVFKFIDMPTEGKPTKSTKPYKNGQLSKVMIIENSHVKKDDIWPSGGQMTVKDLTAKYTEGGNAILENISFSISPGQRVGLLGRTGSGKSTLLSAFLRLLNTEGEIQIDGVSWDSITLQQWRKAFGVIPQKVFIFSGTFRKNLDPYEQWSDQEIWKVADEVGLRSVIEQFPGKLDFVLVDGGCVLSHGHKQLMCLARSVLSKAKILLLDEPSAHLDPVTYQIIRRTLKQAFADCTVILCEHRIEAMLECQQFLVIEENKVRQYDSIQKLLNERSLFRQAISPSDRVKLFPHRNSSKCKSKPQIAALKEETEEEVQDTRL
To study the CFTR protein present at the cell membrane, a protocol of purification by differential centrifugations was used. CFTR wt and delta F508 HeLa cells (2×10^5 cells/cm^2) were lysed with hypotonic lysis buffer (10 mM de KCl, 1 mM de MgCl2, 10 mM Hepes pH 7, 4 and protease inhibitor). Mechanic lysis of cells was realized with minimum 10 strokes of a 26G syringe. Samples were centrifuged 10 min at 3000 g to eliminate cellular fragments and nuclear fraction in the pellet. Then supernatant was centrifuged 45 min at 50 000 g. The pellets with cellular membrane were resolubilized in RIPA buffer.
Aliquots of membrane cell extracts (30 μg protein) were separated by 7% SDS-PAGE and transferred on PVDF membrane. The western blots were probed with mouse monoclonal antibodies specific for CFTR (MM13-4, Millipore) 2 h at room temperature.

The subject of another assay is IL-8 production. The following applies: CF cells; recent study [5]; cited from earlier work.
Assay [2] relates to NF-κB transcriptional activity. The following applies: CF cells; recent study [5]; cited from earlier work.

Turning to `CSc1ccc(/C=C2/C(C)=C(CC(=O)O)c3cc(F)ccc32)cc1` [sulindac sulfide], the inhibition of cyclooxygenase result in the assay on cyclooxygenase was “inhibits cyclooxygenase activity”.

`C=S(C)(=O)c1ccc(/C=C2/C(C)=C(CC(=O)O)c3cc(F)ccc32)cc1` (stereo not drawn) [sulindac sulfone]: the IL-8 promoter activity result in the assay on IL-8 promoter is given as “at least as effective as sulindac; also recorded: inhibits”. Moreover, in the assay with cyclooxygenase, the inhibition of cyclooxygenase result is given as “inactif on COX; also recorded: does not inhibit cyclooxygenase”. Also, in assay [1] (250 μM, HeLa CFTR wt and CFTR DF508 (FIG. 8A)), the NF-κB transcriptional activity result was “inhibits the transcriptional activity of NF-κB”.

`CC(C)Cc1ccc(C(C)C(=O)O)cc1` (stereo not drawn) [ibuprofen]: the “Ratio CFTR C/C + B (%)” value on CFTR (HeLa CFTR WT, Ctr. 65.1) is 80.6%. Besides, the “mature form of CFTR (Western blot)” value at CFTR (WT-CFTR HeLa cells) is recorded as “significant increase of mature form of CFTR”. The “transcriptional activity of NF-κB” value is “inhibits transcriptional activity of NF-κB similar to ibuprofen” in assay [1] (BEAS-2B and HeLa cells with wt or deltaF508-CFTR (FIGS. 1A, B)); “inhibits the transcriptional activity of NF-κB” in assay [2]. Further, in the assay with IL-8 production, the IL-8 production entry is reported as “not accompanied by a decreased of IL-8 production”.
